These results are taken from paper PMC10041525, “New Dual Inhibitors of Bacterial Topoisomerases with Broad-Spectrum Antibacterial Activity and In Vivo Efficacy against Vancomycin-Intermediate Staphylococcus aureus” (Journal of Medicinal Chemistry, 2023).

A short description of this data set: in vitro. The settings on record: pH 7.4; for Clint (pred. in vivo) / half-life at 1 h, 1 µM: microsomes. The protocol: Liver microsomal fractions were purchased from XenoTech LLC, (KS, USA). […] To initiate the reaction, 1 mM NADPH was added. Samples were taken at 0, 5, 10, 20, 40, and 60 min. To terminate the reaction, cold acetonitrile with warfarin as an internal standard was added. LC–MS/MS was used to analyze the samples and determine the amount of remaining parent compound. The LC–MS/MS method was the same as described above in Chapter LogD Determination.

In general, half-life refers to how long it takes for the measured level to halve. Read a low half-life as fast loss. With `Cc1[nH]c(C(=O)Nc2nc3c(N4CCOCC4)cc(C(=O)O)cc3s2)c(Cl)c1Cl` [7a, 2-(3,4-Dichloro-5-methyl-1H-pyrrole-2-carboxamido)-4-morpholinobenzo[d]thiazole-6-carboxylic Acid], where the note is “human”, the “Clint (pred. in vivo)” value is recorded as 630 mL/min; the half-life at 1 h, 1 µM was 1.72 h; the “ClH (pred.)” value was determined as 14 mL/min; the Epred stood at 0.01. Besides, where the note is “mouse”, the “Clint (pred. in vivo)” value is reported as 1.3 mL/min; the half-life at 1 h, 1 µM turned out to be 1.45 h; the “ClH (pred.)” value came out at 0.03 mL/min; the Epred was 0.01.
